The text below walks through data of US9085555B2, “Complement pathway modulators and uses thereof” (priority 2011, dated 2015).

The target of the assay is Factor D (Homo sapiens (Human), UniProt P00746). The assay is described as follows: biochemical. It counts as biochemical. The note with it: read-out: IC50.
Factor D, sequence (P00746 26-253): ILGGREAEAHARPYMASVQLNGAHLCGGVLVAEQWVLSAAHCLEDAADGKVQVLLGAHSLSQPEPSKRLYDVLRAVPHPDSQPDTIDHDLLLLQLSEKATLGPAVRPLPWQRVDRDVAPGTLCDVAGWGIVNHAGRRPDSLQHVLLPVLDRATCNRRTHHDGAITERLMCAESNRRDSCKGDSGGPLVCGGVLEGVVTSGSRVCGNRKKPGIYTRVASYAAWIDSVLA

For the compound `CC(=O)c1cn(CC(=O)N2[C@@H]3C[C@@H]3C[C@H]2C(=O)NCc2cccc(Cl)c2F)c2ccncc12` [Example 524, (1R,3S,5R)-2-[2-(3-Acetyl-pyrrolo[3,2-c]pyridin-1-yl)-acetyl]-2-aza-bicyclo[3.1.0]hexane-3-carboxylic acid 3-chloro-2-fluoro-benzylamide], the IC50 was 64 nM.

Consider `CC(=O)c1cn(CC(=O)N2[C@@H]3C[C@@H]3C[C@H]2C(=O)NCc2cc(-c3nnn[nH]3)cc(Cl)c2F)c2ccccc12` [Example 525, (1R,3S,5R)-2-[2-(3-Acetyl-indol-1-yl)-acetyl]-2-aza-bicyclo[3.1.0]hexane-3-carboxylic acid 3-chloro-2-fluoro-5-(1H-tetrazol-5-yl)-benzylamide], for which the IC50 stood at 36 nM.

Regarding `COC(=O)c1ccc2c(C(C)=O)cn(CC(=O)N3[C@@H]4C[C@@H]4C[C@H]3C(=O)NCc3cccc(Cl)c3F)c2c1` [Example 526, 3-Acetyl-1-{2-[(1R,3S,5R)-3-(3-chloro-2-fluoro-benzylcarbamoyl)-2-aza-bicyclo[3.1.0]hex-2-yl]-2-oxo-ethyl}-1H-indole-6-carboxylic acid methyl ester], the IC50 stood at 54 nM.

On to `CC(=O)c1cn(CC(=O)N2[C@@H]3C[C@@H]3C[C@H]2C(=O)NCc2cc(C#N)cc(Cl)c2F)c2ccccc12` [Example 527, (1R,3S,5R)-2-[2-(3-Acetyl-indol-1-yl)-acetyl]-2-aza-bicyclo[3.1.0]hexane-3-carboxylic acid 3-chloro-5-cyano-2-fluoro-benzylamide], for which the IC50 was 483 nM.

For the compound `NC(=O)c1cn(CC(=O)N2C[C@H](F)C[C@H]2C(=O)NCc2cccc(Cl)c2F)c2cc(OC(F)F)ccc12` [Example 528, 1-{2-[(2S,4R)-2-(3-Chloro-2-fluoro-benzylcarbamoyl)-4-fluoro-pyrrolidin-1-yl]-2-oxo-ethyl}-6-difluoromethoxy-1H-indole-3-carboxylic acid amide], the IC50 worked out at 75 nM.

Regarding `CC(=O)c1cn(CC(=O)N2C[C@](C)(F)C[C@H]2C(=O)NCc2cccc(Cl)c2F)c2ncccc12` [Example 530, (2S,4R)-1-[2-(3-Acetyl-pyrrolo[2,3-b]pyridin-1-yl)-acetyl]-4-fluoro-4-methyl-pyrrolidine-2-carboxylic acid 3-chloro-2-fluoro-benzylamide], the IC50 was 72 nM.

In the case of `CC(=O)c1cn(CC(=O)N2C[C@H](F)C[C@H]2C(=O)NCc2cccc(Cl)c2F)c2cc(Cl)ccc12` [Example 531, (2S,4R)-1-[2-(3-Acetyl-6-chloro-indol-1-yl)-acetyl]-4-fluoro-pyrrolidine-2-carboxylic acid 3-chloro-2-fluoro-benzylamide], the IC50 came out at 11 nM.

On to `CC(=O)c1cn(CC(=O)N2[C@@H]3C[C@@H]3C[C@H]2C(=O)NCc2cccc(Cl)c2F)c2nc(C#N)ccc12` [Example 532, (1R,3S,5R)-2-[2-(3-Acetyl-6-cyano-pyrrolo[2,3-b]pyridin-1-yl)-acetyl]-2-aza-bicyclo[3.1.0] hexane-3-carboxylic acid 3-chloro-2-fluoro-benzylamide], for which the IC50 turned out to be 223 nM.

Take `COC[C@@H](NC(=O)[C@@H]1C[C@H]2C[C@H]2N1C(=O)Cn1cc(C(C)=O)c2cccnc21)c1cccc(Cl)c1F` [Example 533, (1R,3S,5R)-2-[2-(3-Acetyl-pyrrolo[2,3-b]pyridin-1-yl)-acetyl]-2-aza-bicyclo[3.1.0] hexane-3-carboxylic acid [(S)-1-(3-chloro-2-fluoro-phenyl)-2-methoxy-ethyl]-amide]: the IC50 was determined as 34 nM.

With `COC[C@@H](NC(=O)[C@@H]1C[C@H]2C[C@H]2N1C(=O)Cn1cc(C(C)=O)c2ccncc21)c1cccc(Cl)c1F` [Example 535, (1R,3S,5R)-2-[2-(3-Acetyl-pyrrolo[2,3-c]pyridin-1-yl)-acetyl]-2-aza-bicyclo[3.1.0] hexane-3-carboxylic acid [(S)-1-(3-chloro-2-fluoro-phenyl)-2-methoxy-ethyl]-amide], the IC50 amounted to 62 nM.

As to `CC(=O)c1cn(CC(=O)N2[C@@H]3C[C@@H]3C[C@H]2C(=O)NCc2cccc(Cl)c2F)c2cc(OCc3ccccc3)ccc12` [Example 536, (1R,3S,5R)-2-[2-(3-Acetyl-6-benzyloxy-indol-1-yl)-acetyl]-2-aza-bicyclo[3.1.0]hexane-3-carboxylic acid 3-chloro-2-fluoro-benzylamide], the IC50 was found to be 121 nM.

For the compound `CC(=O)c1cn(CC(=O)N2C[C@H]3C[C@H]3[C@H]2C(=O)NCc2cccc(Cl)c2F)c2ccncc12` [Example 537, (1R,2S,5S)-3-[2-(3-Acetyl-pyrrolo[3,2-c]pyridin-1-yl)-acetyl]-3-aza-bicyclo[3.1.0] hexane-2-carboxylic acid 3-chloro-2-fluoro-benzylamide], the IC50 came to 609 nM.

For the compound `CC(=O)c1cn(CC(=O)N2C[C@H]3C[C@H]3[C@H]2C(=O)NCc2cccc(Cl)c2F)c2ncccc12` [Example 538, (1R,2S,5S)-3-[2-(3-Acetyl-pyrrolo[2,3-b]pyridin-1-yl)-acetyl]-3-aza-bicyclo[3.1.0] hexane-2-carboxylic acid 3-chloro-2-fluoro-benzylamide], the IC50 came to 911 nM.

Turning to `CC(=O)c1cn(CC(=O)N2C[C@H](F)C[C@H]2C(=O)NCc2cccc(Cl)c2F)c2ccc(OC(F)(F)F)cc12` [Example 539, (2S,4R)-1-[2-(3-Acetyl-5-trifluoromethoxy-indol-1-yl)-acetyl]-4-fluoro-pyrrolidine-2-carboxylic acid 3-chloro-2-fluoro-benzylamide], the IC50 came out at 31 nM.

On to `COC(=O)c1ccc2c(c1)c(C(C)=O)cn2CC(=O)N1[C@@H]2C[C@@H]2C[C@H]1C(=O)NCc1cccc(Cl)c1F` [Example 540, 3-Acetyl-1-{2-[(1R,3S,5R)-3-(3-chloro-2-fluoro-benzylcarbamoyl)-2-aza-bicyclo[3.1.0]hex-2-yl]-2-oxo-ethyl}-1H-indole-5-carboxylic acid methyl ester], for which the IC50 stood at 236 nM.

As for `COC(=O)c1cccc2c(C(C)=O)cn(CC(=O)N3[C@@H]4C[C@@H]4C[C@H]3C(=O)NCc3cccc(Cl)c3F)c12` [Example 541, 3-Acetyl-1-{2-[(1R,3S,5R)-3-(3-chloro-2-fluorobenzylcarbamoyl)-2-aza-bicyclo[3.1.0]hex-2-yl]-2-oxo-ethyl}-1H-indole-7-carboxylic acid methyl ester], the 50% inhibitory concentration (IC50) was determined as 91 nM.

`COC(=O)c1ccc2c(C(C)=O)cn(CC(=O)N3C[C@H](F)C[C@H]3C(=O)NCc3cccc(Cl)c3F)c2c1` [Example 542, 3-Acetyl-1-{2-[(2S,4R)-2-(3-chloro-2-fluoro-benzylcarbamoyl)-4-fluoro-pyrrolidin-1-yl]-2-oxo-ethyl}-1H-indole-6-carboxylic acid methyl ester]: the IC50 was 19 nM.

As to `C[C@@]1(F)C[C@@H](C(=O)NCc2cccc(Cl)c2F)N(C(=O)Cn2cc(C(=O)CO)c3ccccc32)C1` [Example 543, (2S,4R)-4-Fluoro-1-{2-[3-(2-hydroxy-acetyl)-indol-1-yl]-acetyl}-4-methyl-pyrrolidine-2-carboxylic acid 3-chloro-2-fluoro-benzylamide], the IC50 was 245 nM.

For the compound `CC(=O)c1cn(CC(=O)N2C[C@@H]3C[C@@H]3[C@H]2C(=O)NCc2cccc(Cl)c2F)c2cnccc12` [Example 544, (1S,2S,5R)-3-[2-(3-Acetyl-pyrrolo[2,3-c]pyridin-1-yl)-acetyl]-3-aza-bicyclo[3.1.0] hexane-2-carboxylic acid 3-chloro-2-fluoro-benzylamide], the IC50 amounted to 1110 nM.

Consider `COC(=O)Cc1ccc2c(C(C)=O)cn(CC(=O)N3[C@@H]4C[C@@H]4C[C@H]3C(=O)NCc3cccc(Cl)c3F)c2c1` [Example 545, (3-Acetyl-1-{2-[(1R,3S,5R)-3-(3-chloro-2-fluoro-benzylcarbamoyl)-2-aza-bicyclo[3.1.0]hex-2-yl]-2-oxo-ethyl}-1H-indol-6-yl)-acetic acid methyl ester], for which the IC50 amounted to 113 nM.

On to `CC(=O)c1cn(CC(=O)N2C[C@H](F)C[C@H]2C(=O)NCc2cccc(Cl)c2F)c2ncccc12` [Example 547, (2S,4R)-1-[2-(3-Acetyl-pyrrolo[2,3-b]pyridin-1-yl)-acetyl]-4-fluoro-pyrrolidine-2-carboxylic acid 3-chloro-2-fluoro-benzylamide], for which the IC50 turned out to be 38 nM.

`COC(=O)c1ccc2c(C(C)=O)cn(CC(=O)N3C[C@](C)(F)C[C@H]3C(=O)NCc3cccc(Cl)c3F)c2c1` [Example 548, 3-Acetyl-1-{2-[(2S,4R)-2-(3-chloro-2-fluoro-benzylcarbamoyl)-4-fluoro-4-methyl-pyrrolidin-1-yl]-2-oxo-ethyl}-1H-indole-6-carboxylic acid methyl ester]: the IC50 amounted to 363 nM.

For `COC(=O)Cc1ccc2c(C(C)=O)cn(CC(=O)N3C[C@H](F)C[C@H]3C(=O)NCc3cccc(Cl)c3F)c2c1` [Example 549, (3-Acetyl-1-{2-[(2S,4R)-2-(3-chloro-2-fluoro-benzylcarbamoyl)-4-fluoro-pyrrolidin-1-yl]-2-oxo-ethyl}-1H-indol-6-yl)-acetic acid methyl ester], the IC50 amounted to 69 nM.

As to `CC(=O)c1cn(CC(=O)N2[C@@H]3C[C@@H]3C[C@H]2C(=O)NCc2cccc(Cl)c2F)c2cnccc12` [Example 550, (1R,3S,5R)-2-[2-(3-Acetyl-pyrrolo[2,3-c]pyridin-1-yl)-acetyl]-2-aza-bicyclo[3.1.0]hexane-3-carboxylic acid 3-chloro-2-fluorobenzylamide], the IC50 turned out to be 33 nM.

For `O=C(CO)c1cn(CC(=O)N2C[C@H](F)C[C@H]2C(=O)N[C@H](CF)c2cccc(Br)c2)c2ccccc12` [Example 551, (2S,4R)-4-Fluoro-1-{2-[3-(2-hydroxy-acetyl)-indol-1-yl]-acetyl}-pyrrolidine-2-carboxylic acid [(S)-1-(3-bromo-phenyl)-2-fluoro-ethyl]-amide], the IC50 is 899 nM.

Regarding `CC(=O)c1cn(CC(=O)N2C[C@H](F)C[C@H]2C(=O)NCc2cccc(Cl)c2F)c2cnccc12` [Example 552, (2S,4R)-1-[2-(3-Acetyl-pyrrolo[2,3-c]pyridin-1-yl)-acetyl]-4-fluoro-pyrrolidine-2-carboxylic acid 3-chloro-2-fluoro-benzylamide], the IC50 came out at 40 nM.
